# Experiments:
# Assay type in all cases: cell-based
# [1] = tested on: OVCAR-8; test: SRB growth assay, OVCAR-8; details: Homo sapiens, OVCAR-8 (Ovarian), 48 hours, read-out: Percent viability
# Text: (§1) Tested cell lines included, Leukemia: CCRF-CEM, HL-60(TB), MOLT-4, RPMI-8226 and SR; Non-Small Cell Lung: A549/ATCC, EKVX, HOP-62, HOP-92, NCI-H226, NCI-H23, NCI-H322M, NCI-H460 and NCI-H522; Colon: COLO 205, HCC-2998, HCT-116, HCT-15. HT29, KM12 and SW-620; CNS: SF-268, SF-295, SF-539, SNB-19, SNB-75 and U251; Melanoma: LOX IMVI, MALME-3M, M14, MDA-MB-435, SK-MEL-2, SK-MEL-28, SK-MEL-5, UACC-257 and UACC-62; Ovarian: IGR-OV1, OVCAR-3, OVCAR-4, OVCAR-5, OVCAR-8. NCI/ADR-RES and SK-OV-3; Renal: 786-0, A498, ACHN, CAKI-1, RXF 393, SN12C, TK-10 and UO-31; Prostate: DU-145 and PC-3; and Breast: MCF7, MDA-MB-231/ATCC, MDA-MB-468, HS 578T, BT-549 and T-47D.
# (§2) The cells were cultured in RPMI1640 media supplemented with 10% Fetal Bovine Serum (FBS), 2 mM glutamine and with 5% CO2 and 37° C. For experiment, 5% of FBS and 50 ug/mL of gentamycin were used. Test articles were 10 μM of NUCL 381-3 or 10 μM NUCL 383-3. The positive control was 10 μM of doxorubicin.
# (§3) Cells were plated in 96 well plates. The cells were plated in triplicate. Cells were plated at the densities based on NCI recommendation. Time zero cells (Tz) were fixed the following day with 50% or 80% ice cold Trichloracetic acid (TCA) and washed 5× with water. At 48 hours post addition of treatments, all remaining plates were fixed in 80% ice cold Trichloracetic acid (TCA) and washed 5× with water. After drying, one hundred microliters of 0.4% Sulphorhodamine B (SRB) in 1% acetic acid was added to each plate including the Tzero plate and incubated for 10 minutes at room temperature. After 5 additional washes with 1% acetic acid, plates were allowed to dry. One hundred microliters of Trizma base was added to each well and plates were read at 515 nm.
# (§4) Percent of growth was calculated by the following formulas: [Ti/C]×100, where: Tz=absorbance readings for wells at time zero without treatment; C=absorbance readings of untreated cells (without treatment); and Ti=absorbance reading of wells with treatment.
# [2] = tested on: K-562; test: SRB growth assay, K-562; details: Homo sapiens, K562, K-562 (Leukemia), 48 hours, read-out: Percent viability
# Text: as §1, §2, §3, §4
# [3] = tested on: SNB-19; test: SRB growth assay, SNB-19; details: Homo sapiens, SNB-19 (CNS), 48 hours, read-out: Percent viability
# Text: as §1, §2, §3, §4
# [4] = tested on: NCI-H522; test: SRB growth assay, NCI-H522; details: Homo sapiens, NCI-H522 (Non-Small Cell Lung), 48 hours, read-out: Percent viability
# Text: as §1, §2, §3, §4
# [5] = tested on: HT29; test: SRB growth assay, HT29; details: Homo sapiens, HT-29, HT29 (Colon), 48 hours, read-out: Percent viability
# Text: as §1, §2, §3, §4
# [6] = tested on: MCF7; test: SRB growth assay, MCF7; details: Homo sapiens, MCF7 (Breast), 48 hours, read-out: Percent viability
# Text: as §1, §2, §3, §4
# [7] = tested on: T-47D; test: SRB growth assay, T-47D; details: Homo sapiens, T47D, T-47D (Breast), 48 hours, read-out: Percent viability
# Text: as §1, §2, §3, §4
# [8] = tested on: A498; test: SRB growth assay, A498; details: Homo sapiens, A498 (Renal), 48 hours, read-out: Percent viability
# Text: as §1, §2, §3, §4
# [9] = tested on: SF-268; test: SRB growth assay, SF-268; details: Homo sapiens, SF-268 (CNS), 48 hours, read-out: Percent viability
# Text: as §1, §2, §3, §4
# [10] = tested on: HCT-15; test: SRB growth assay, HCT-15; details: Homo sapiens, HCT-15 (Colon), 48 hours, read-out: Percent viability
# Text: as §1, §2, §3, §4
# [11] = tested on: SNB-75; test: SRB growth assay, SNB-75; details: Homo sapiens, SNB-75 (CNS), 48 hours, read-out: Percent viability
# Text: as §1, §2, §3, §4
# [12] = tested on: LOX IMVI; test: SRB growth assay, LOX IMVI; details: Homo sapiens, LOX IMVI (Melanoma), 48 hours, read-out: Percent viability
# Text: as §1, §2, §3, §4
# [13] = tested on: HS 578T; test: SRB growth assay, HS 578T; details: Homo sapiens, HS 578T (Breast), 48 hours, read-out: Percent viability
# Text: as §1, §2, §3, §4
# [14] = tested on: DU-145; test: SRB growth assay, DU-145; details: Homo sapiens, DU-145 (Prostate), 48 hours, read-out: Percent viability
# Text: as §1, §2, §3, §4
# [15] = tested on: NCI-H226; test: SRB growth assay, NCI-H226; details: Homo sapiens, NCI-H226 (Non-Small Cell Lung), 48 hours, read-out: Percent viability
# Text: as §1, §2, §3, §4
# [16] = tested on: SF-539; test: SRB growth assay, SF-539; details: Homo sapiens, SF-539 (CNS), 48 hours, read-out: Percent viability
# Text: as §1, §2, §3, §4
# [17] = tested on: CAKI-1; test: SRB growth assay, CAKI-1; details: Homo sapiens, CAKI-1 (Renal), 48 hours, read-out: Percent viability
# Text: as §1, §2, §3, §4
# [18] = tested on: IGR-OV1; test: SRB growth assay, IGR-OV1; details: Homo sapiens, IGROV-1, IGR-OV1 (Ovarian), 48 hours, read-out: Percent viability
# Text: as §1, §2, §3, §4
# [19] = tested on: MDA-MB-435; test: SRB growth assay, MDA-MB-435; details: Homo sapiens, MDA-MB-435 (Melanoma), 48 hours, read-out: Percent viability
# Text: as §1, §2, §3, §4
# [20] = tested on: HL-60(TB); test: SRB growth assay, HL-60(TB); details: Homo sapiens, HL-60(TB) (Leukemia), 48 hours, read-out: Percent viability
# Text: as §1, §2, §3, §4
# [21] = tested on: RXF 393; test: SRB growth assay, RXF 393; details: Homo sapiens, RXF 393 (Renal), 48 hours, read-out: Percent viability
# Text: as §1, §2, §3, §4
# [22] = tested on: NCI-H322M; test: SRB growth assay, NCI-H322M; details: Homo sapiens, NCI-H322M (Non-Small Cell Lung), 48 hours, read-out: Percent viability
# Text: as §1, §2, §3, §4
# [23] = tested on: ACHN; test: SRB growth assay, ACHN; details: Homo sapiens, ACHN (Renal), 48 hours, read-out: Percent viability
# Text: as §1, §2, §3, §4
Structure (SMILES),viability at 10 µM [1] [%],viability at 10 µM [2] [%],viability at 10 µM [3] [%],viability at 10 µM [4] [%],viability at 10 µM [5] [%],viability at 10 µM [6] [%],viability at 10 µM [7] [%],viability at 10 µM [8] [%],viability at 10 µM [9] [%],viability at 10 µM [10] [%],viability at 10 µM [11] [%],viability at 10 µM [12] [%],viability at 10 µM [13] [%],viability at 10 µM [14] [%],viability at 10 µM [15] [%],viability at 10 µM [16] [%],viability at 10 µM [17] [%],viability at 10 µM [18] [%],viability at 10 µM [19] [%],viability at 10 µM [20] [%],other results
"COc1cccc2c1C(=O)c1c(O)c3c(c(O)c1C2=O)C[C@@](O)(C(=O)CO)C[C@@H]3O[C@H]1C[C@H](N)[C@H](O)[C@H](C)O1 [Doxorubicin, reference compound]",15,17.1,37.3,18.1,34.9,69.1,37.5,62.9,6.91,31.1,36,24.4,51.5,72.5,34.2,6.83,0,8.63,17.4,25,viability at 10 µM [21]: 8.68%; viability at 10 µM [22]: 42.6%; viability at 10 µM [23]: 40.2%
FC(F)(F)c1cn(CC2CCNCC2)c2ncnc(Cl)c12 [NUCC-0000381],31.7,8.38,28.9,38.7,33.3,89.8,60.8,93.8,3.37,40.4,83.3,26,53.9,29.8,54.9,7.4,86.8,36.9,65.5,25.8,viability at 10 µM [21]: 12%; viability at 10 µM [22]: 68.1%; viability at 10 µM [23]: 23.3%
CS(=O)(=O)N1CCC(Cn2cc(C(F)(F)F)c3c(Cl)ncnc32)CC1 [NUCC-0000383],73.9,10.2,21.4,21.7,30.3,108,63.3,101,1.77,38.8,23.3,35.8,50.1,11.2,29.5,4.93,46.8,77.5,46.6,22.5,viability at 10 µM [21]: 7.81%; viability at 10 µM [22]: 53.8%; viability at 10 µM [23]: 77.8%

# From patent US9981968B2, “Substituted pyrrolo[2,3-d]pyrimidines for the treatment of cancer and proliferative disorders” (Northwestern University, priority 2013, dated 2018)
